Publication PMC2376196, “Novel thalidomide analogues display anti-angiogenic activity independently of immunomodulatory effects” (British Journal of Cancer, 2002)
≈ marks a conversion by molar mass, not a printed value. Entries after “also recorded” stand apart in the source; their conditions may differ. Where two headings read alike, the source gives them in different places.

Key:
[1] = system: EA.hy926 cells; experiment: Wound assay for EA.hy926 cell migration; type: cell-based, human; settings: 16 h
Description: We tested IMiD-1 in the wound healing assay as described by [Igura et al, 2001]. Briefly, confluent monolayers of EA.hy.926 cells in 35-mm dishes were wounded with a rubber policeman and washed with PBS. Then the dishes were incubated in complete DMEM containing IMiD-1 or suramin for 16 h at 37°C in a 5% CO2 incubator. DMSO (0.05%) was used as control. The cell monolayers were fixed with absolute methanol and stained with Giemsa. The number of cells that had migrated from the edge of the wound in each 125×500 μm area of eight randomly chosen fields was counted. The results are presented as the average number of cells per field.

[2] = system: rat aortic explants; experiment: Rat aorta assay (microvessel outgrowths); type: cell-based; set-up: key to Anti-angiogenesis Rat aorta: 0=no effect; 1=non significant inhibition; 2=significant inhibition at 10 μg ml^-1; 3=significant inhibition at 1 μg ml^-1; settings: for Anti-angiogenesis Rat aorta: ranked 0-3
Description: For the human angiogenesis assay thalidomide and various analogues were dissolved in DMSO (Sigma, Kent, UK) to obtain a stock solution of 1 mg ml^−1. Further dilutions were made in warm culture medium immediately before use and 1 and 10 μg ml^−1 of thalidomide or analogues were administered every 48 h. Final DMSO concentration was 0.05%. For the rat aorta assay, thalidomide analogues (Celgene, Warren, NJ, USA) were prepared in Tween 80 (Sigma, Kent, UK). […] The final Tween 80 concentration was 0.025%. For in vivo treatment experiments, mice were treated daily with 10 or 50 mg kg^−1 IMiD-1 with 0.5% DMSO as vehicle (see Tumour challenge model).
Preparation of agarose culture wells and aortic explants were prepared as described originally [Nicosia and Ottinetti, 1990], and subsequently modified by [Stevenson et al, 1998]. In brief, aortic explants were stored in DMEM/HAM F12. Agarose rings were obtained by punching two concentric circles in the sterile agarose gel (1.5%, w v^−1) with specifically designed aluminium punches. Collagen type I from rat tail (Sigma) was dissolved overnight in glacial acetic acid and diluted to 4.3 mg ml^−1 with 10% (v v^−1) DMEM/HAM F12. The final collagen solution was obtained by mixing seven volumes of 4.3 mg ml^−1 collagen with two volumes NaHCO3 (11.7 mg ml^−1 in DMEM/HAM F12) and one volume of 10×MEM. Finally, the pH was adjusted to 7.4 with 0.1 M NaOH using phenol red as a visual indicator. Prior to embedding of explants in collagen gel, the bottom of each agarose well was coated with 200 μl collagen solution and allowed to set at 37°C. The wells were then filled (further addition of 400 μl) and explants were promptly orientated into the centre of the collagen gel. The plates were incubated overnight with serum-free medium before group allocation and drug treatment commenced. Drugs were prepared as described and diluted in DMEM/HAM F12 medium to be administered at each media change (48 h). Microvessel outgrowths in all cultures were quantified at each media change.

[3] = system: HUVECs (tubule formation); experiment: Human angiogenesis kit (tubule development); type: cell-based; set-up: key to Anti-angiogenesis Human model: 0=no effect; 1=non significant inhibition; 2=significant inhibition at 10 μg ml^-1; 3=significant inhibition at 1 μg ml^-1; settings: for inhibition of tubule development: 11 days; for Anti-angiogenesis Human model: ranked 0-3
Description: (§1) For the human angiogenesis assay thalidomide and various analogues were dissolved in DMSO (Sigma, Kent, UK) to obtain a stock solution of 1 mg ml^−1. Further dilutions were made in warm culture medium immediately before use and 1 and 10 μg ml^−1 of thalidomide or analogues were administered every 48 h. Final DMSO concentration was 0.05%. For the rat aorta assay, thalidomide analogues (Celgene, Warren, NJ, USA) were prepared in Tween 80 (Sigma, Kent, UK). Dilutions were made in culture medium immediately before use and 1 or 10 μg ml^−1 of the analogues were administered every 48 h. The final Tween 80 concentration was 0.025%. For in vivo treatment experiments, mice were treated daily with 10 or 50 mg kg^−1 IMiD-1 with 0.5% DMSO as vehicle (see Tumour challenge model).
A commercially available human angiogenesis kit, used for the assessment of angiogenesis in vitro ([Bishop et al, 2000]; [Donovan et al, 2001]; [Terai et al, 2001]; [Drinkwater et al, 2002]; [Osugi et al, 2002]) was provided by TCS Cellworks. The assay is supplied as growing cultures of HUVECs at the earliest stages of tubule formation in a 24 well plate format. The assay was carried out according to manufactures instructions with minor modifications. In brief, 0.5 ml^−1 of fresh medium or medium plus drug preparations were added to the appropriate wells. A known angiogenic stimulator (VEGF at 5 ng ml^−1) and inhibitor (suramin at 10 μg ml^−1) were included as positive and negative controls respectively in addition to medium and DMSO controls and plates were incubated at 37°C. Drug administration was carried out every 48 h. On day 11, wells were fixed using ice cold 70% EtOH prior to incubation (RT) for 30 min. Blocking buffer was then added for 10 min. Endothelial cells were visualised by first staining with a primary sheep anti-human for von Willebrand factor antibody followed by a secondary donkey anti-sheep IgG horseradish peroxidase conjugate prior to colour development using a DAB metal substrate. The plate was washed with ddH2O (×3) and allowed to air dry overnight. Cultures were scored manually using a 25-point Chalkley eyepiece graticule (Graticules Ltd., Tonbridge, Kent, UK), previously described as a satisfactory method of assessing tumour vascularity ([Fox et al, 1995]). The extent of angiogenesis was assessed by counting the number of points on the chalkley graticule that landed on a tubule. The count was repeated 12 times for each well. The term ‘graticule unit’ was assigned to this measurement of tubule density.

[4] = system: EC; set-up: method as in Takano et al, 1994; settings: ref Takano et al, 1994; cited from earlier work
[5] = system: HUVEC; experiment: HUVEC proliferation (bFGF- and VEGF-induced, 3H-thymidine); type: cell-based, human; settings: for bFGF and VEGF-induced proliferation of HUVECs: 5-50 μg ml^-1, 96 h; for HUVEC inhibition ~IC50 VEGF / HUVEC inhibition ~IC50 bFGF / IC50: 96 h, approximate figures; for IC50: Homo sapiens, HUVEC
Description: (§2) Human umbilical vein endothelial cells (HUVEC) were purchased from TCS Cellworks Ltd. (Park Leys, Botolph Claydon, Bucks, UK) and cultured in large vessel EC basal medium and cell growth supplement (TCS Cellworks Ltd.). The cells were passaged between 3–5 times prior to use. The human endothelial-like EA.hy926 cell line, derived from the fusion of HUVEC with the A549 carcinoma cell line ([Edgell et al, 1983]), was kindly provided by Cora-Jean Edgell (NC, USA). The cells were cultured in DMEM with high glucose, 10% FCS and HAT. Both cell lines were harvested from subconfluent cultures and diluted to 4×10^4 cells ml^−1. Cells were seeded in 60 wells of a 96-well plate in a volume of 100 μl^−1. One plate was used per test article. Plates were incubated for 1 h at 37°C and 5% CO2. Growth factors were added at a volume of 50 μl^−1 with final concentrations of 10 ng ml^−1. Thalidomide and its analogues were added at a volume of 50 μl^−1 in final concentrations of 5, 10, 25, 50 μg ml^−1. DMSO as used as a vehicle at a final concentration of 0.05%. Plates were incubated at 37°C with 5% CO2 for 96 h. During the last 18 h of culture 1 μCi^−1 of ^3H-thymidine was added per well. Plates were then stored at −20°C until analysis using a Microbeta counter (Wallac, UK).

[6] = system: EA.hy926 cell line; experiment: EA.hy926 proliferation (bFGF- and VEGF-induced, 3H-thymidine); type: cell-based, human; settings: 5-50 μg ml^-1, 96 h; data not shown
Description: as §2

[7] = system: CMT93 cells; experiment: CMT93 cells in vitro (direct effect, VEGF secretion); type: cell-based, murine; settings: data not shown
[8] = system: TNF-α; experiment: TNF-α inhibitory activity; type: cell-based
[9] = system: CMT93 colorectal tumour; type: in vivo, MF1 nude mice
Description: as §1
MF1 nude mice (nu nu^−1) were purchased from Harlan UK. Mice were age and sex-matched for individual experiments. All animal experiments have been carried out with ethical committee approval. The ethical guidelines that were followed meet the standards set by the UKCCCR guidelines ([Workman et al, 1998]). CMT93 is an epithelial-like murine rectum polypoid carcinoma cell line with sarcomatous features derived from a C57/BL mouse ([Franks and Hemmings, 1978]). Mice were challenged subcutaneously with 200 μl of the murine colorectal cell line CMT93 (2×10^6 per mouse). Once the tumours reached a size of 20 mm^3, the potent anti-angiogenic analogue IMiD-1 was administered intraperitoneally daily at a concentration of 10 or 50 mg kg^−1. Tumours were measured every 3–4 days, and volumes (in mm^3) were calculated by the use of the formula (width [mm^2]×length [mm]×0.52). The animals were observed daily, and those bearing large tumours were monitored carefully for any signs of discomfort. […] Histological samples were obtained using formalin-fixed, paraffin-embedded sections stained for haematoxylin and eosin and viewed under a microscope at a magnification of ×400.

[10] = system: PDE type 4 purified from U937 cells; experiment: Phosphodiesterase (PDE) type 4 assay; type: biochemical; settings: PDE type 4 from U937 cells; three independent experiments; read-out: PDE4 activity IC50
Description: PDE type 4 purification from U937 cells was carried out using the method of [Hill and Mitchell (1994)]. PDE activity was assayed, using a method described by [di Santo and Heaslip (1993)], in the presence of varying concentrations of thalidomide analogues. Each data point was carried out in duplicate with activity expressed as percentage of control. IC50 was determined from dose response curves derived from three independent experiments.

[11] = system: human EC; set-up: method as in Moreira et al, 1999; settings: compared with thalidomide; ref Moreira et al, 1999; cited from earlier work

Row | IC50 [8] [µM] | IC50 [10] [µM] | Compound | migration of EC in the wound healing assay [1] | inhibition of microvessel outgrowths ([2]; 10 μg ml^-1 every 48 h) | bFGF and VEGF-induced proliferation of HUVECs [5] | bFGF and VEGF-induced proliferation of EA.hy926 [6] | inhibition of microvessel outgrowths ([2]; 1 μg ml^-1 every 48 h) | Anti-angiogenesis Rat aorta [2] | inhibition of tubule development ([3]; 10 μg ml^-1 every 48 h) | Anti-angiogenesis Human model [3] | HUVEC inhibition ~IC50 VEGF ([5]; VEGF-induced proliferation) [µg/mL] | HUVEC inhibition ~IC50 bFGF ([5]; bFGF-induced proliferation) [µg/mL] | other results
1 | 12.6 | 9.42 | COc1ccc(C(CC(N)=O)N2C(=O)c3ccccc3C2=O)cc1OC (centres unmarked) [SelCID-3] | – | potent inhibition | inhibited | inhibited | potent inhibition | 3 | – | – | ~45 | ~25 | inhibition of human EC proliferation in vitro [11]: greater extent than thalidomide
2 | 190 | > 100 | O=C1CCC(N2C(=O)c3ccccc3C2=O)C(=O)N1 (centres unmarked) [Thalidomide] | – | – | did not significantly inhibit | – | – | 0 | non-significant inhibition | 1 | – | – | inhibition of microvessel development ([2]; at up to 50 μg ml^-1, data not shown): did not significantly inhibit; IC50 ([5]; VEGF-induced proliferation, read-out: HUVEC inhibition ~IC50 VEGF): > 50 µg/mL; IC50 ([5]; bFGF-induced proliferation, read-out: HUVEC inhibition ~IC50 bFGF): > 50 µg/mL

Continued, compound first:

Row | Compound | IC50 [8] [µM] | IC50 [10] [µM] | migration of EC in the wound healing assay [1] | inhibition of microvessel outgrowths ([2]; 10 μg ml^-1 every 48 h) | bFGF and VEGF-induced proliferation of HUVECs [5] | bFGF and VEGF-induced proliferation of EA.hy926 [6] | inhibition of microvessel outgrowths ([2]; 1 μg ml^-1 every 48 h) | Anti-angiogenesis Rat aorta [2] | inhibition of tubule development ([3]; 10 μg ml^-1 every 48 h) | Anti-angiogenesis Human model [3] | HUVEC inhibition ~IC50 VEGF ([5]; VEGF-induced proliferation) [µg/mL] | HUVEC inhibition ~IC50 bFGF ([5]; bFGF-induced proliferation) [µg/mL] | other results
3 | Cc1ccc(C(=O)Nc2ccc(S(=O)(=O)O)c3cc(S(=O)(=O)O)cc(S(=O)(=O)O)c23)cc1NC(=O)c1cccc(NC(=O)Nc2cccc(C(=O)Nc3cc(C(=O)Nc4ccc(S(=O)(=O)O)c5cc(S(=O)(=O)O)cc(S(=O)(=O)O)c45)ccc3C)c2)c1 [suramin, reference compound] | – | – | significantly inhibit | significantly inhibit | did not inhibit | – | – | – | – | – | – | – | IC50 ([2]; Rattus norvegicus, previously determined, data not shown): 10 µg/mL (≈ 7.71 µM); inhibition at 10 µg/mL ([3]; Homo sapiens, HUVEC, suramin at 10 μg ml^-1): ~50%; concentration required to inhibit EC proliferation [4]: 250 µg/mL
4 | Nc1cccc2c1CN(C1CCC(=O)NC1=O)C2=O (centres unmarked) [IMiD-1] | 0.1 | > 100 | significantly inhibit | – | did not significantly inhibit; also recorded: did not affect | did not affect | significantly inhibited | 3 | more potent than suramin | 3 | >50 | >50 | direct drug effect on CMT93 cells in vitro [7]: no direct drug effect; secretion of VEGF by CMT93 cells in vitro [7]: inhibit; inhibition of microvessel outgrowths ([2]; 10 μg ml^-1 every 48 h, up to day 10): 100%; inhibition of tubule development ([3]; 1 μg ml^-1 every 48 h): significant reduction; also recorded: significantly inhibit; histological examination of tumours ([9]; 10 or 50 mg kg^-1 i.p. daily): vast regions of necrotic tissue; tumour growth rates ([9]; 10 or 50 mg kg^-1 i.p. daily, nude mice, CMT93): significantly reduce; health and weight of mice ([9]; mouse, in vivo, ip): healthy and maintained weight as normal
5 | VEGF | – | – | – | – | – | – | – | – | – | – | – | – | effect on angiogenesis (tubule development) ([3]; VEGF at 5 ng ml^-1, positive control): significantly increased
